# pIC50: −log10 of the molar value. Entries after “also recorded” stand apart in the source; their conditions may differ.
# Tests used:
# [1] = system: osteoclasts differentiated from mouse bone marrow cells; assay: TRAP assay, osteoclast proliferation and differentiation inhibitory activity; format: cell-based; conditions: for pIC50: tested at 1, 4, 7 and 10 μM, TRAP-positive multinucleated cells
# Method: Bone marrow cells were collected from the femur and shin bones of 5-8 week old male C57BL/6 mice. Muscles were removed from the bones, and stored in cold phosphate buffered saline (PBS; # CAP08-050, GenDEPOT, Katy, Tex., USA).
# Both ends of each bone were cut, and the bone marrow was flushed with a flushing medium (serum-free α-MEM, 2 mM ethylenediaminetetraacetic acid) kept cool, using a 25 G needle.
# Bone marrow cells were collected by centrifugation at 3,000 rpm for 3 min using Labogene 1248R (Labogene, Lynge, Denmark), and then resuspended in a wash medium. Thereafter, 8 mL of the collected bone marrow cells were overlaid on 6 mL of a lymphocyte isolation medium (LSM; #50494, MP Biomedicals, Santa Ana, Calif., USA), followed by centrifugation at 1,600 rpm for 20 minutes, thereby isolating mononuclear cells.
# The mononuclear cell bands were collected from the media interface, and incubated using complete α-MEM (containing 10% fatal bovine serum (FBS; Capricorn Scientific, Ebsdorfergrund, Germany) and 1% (v/v) antibiotic (including 100 U/mL penicillin G and […] streptomycin)) in the conditions of 37° C. and 5% CO2 while the medium was exchanged every three days.
# In order to promote the differentiation of osteoclasts, 1×10^5 cells were incubated in 0.5 mL of the medium per well in a 48-well plate, in the presence of osteoclast differentiation factors, M-CSF (60 ng/mL) and RANKL (150 ng/mL), purchased from PeproTec (Seoul, Korea). As known, macrophages/monocytes derived from one bone marrow differentiated into mature multinucleated osteoclasts after 6 days (Gurt et al., 2015).
# The tibia and femur of 6-8 week old male C57BL/6 mice were aseptically resected, and bone marrow cells were aseptically collected using a syringe (21 G, Korea Green Cross). The bone marrow cells were floated in 500 μL of α-MEM medium (Gibco BRL Co.) containing sodium bicarbonate (2.0 g/L), streptomycin (100 mg/L), and penicillin ([…]), dispensed in a 48-well plate, and assayed in triplicate. Mononuclear cells as precursor cells of osteoclasts were treated with RANKL and M-CSF as differentiation promoting factors, and thus differentiated into osteoclasts within 5-7 days.
# 2-1) Sample preparation: The hot-water extract, EA extract, or fraction of Osmunda japonica were prepared by the same methods as in section 1 of <Example 1>. The EA-2 extract was dissolved in a minimum amount of DMSO, and then diluted with water to 70% of the original volume of the hot-water extract assuming that the yield of EA-2 extraction was approximately 70%. 2-2) Sample administration: The sample was continuously administered to a medium at 1:20 (v/v; 25 μL of the sample per 500 μL of the medium) from day 1 of incubation of bone marrow cells, while the medium was exchanged every 2-3 days. 2-3) Measurement of osteoclast differentiation Osteoclasts were defined by TRAP-positive multinucleated cells stained with TRAP. As for TRAP stain solution, 5 mg of naphthol AS-MS phosphate (Sigma N-4875) as a base and 25 mg of Fast Red Violet LB salt as a color developing reagent were dissolved in about 0.5 mL of N,N-dimethylformamide, and then mixed with 0.1N NaHCO3 buffer solution (50 mL) containing 50 mM tartaric acid. The reaction reagent was stored in a refrigerator before use.
# After bone marrow cells were incubated in a medium containing differentiation promoting factors for 7 days, the medium was removed, and the cells were washed with PBS, and then immobilized with PBS containing 10% formalin for 2-5 minutes. Thereafter, the cells were immobilized with a 1:1 mixture solution of ethanol and acetone, followed by drying. The immobilized cells were treated with the TRAP stain solution for 15 minutes, and washed with PBS, and then the degree of cell staining was observed by a microscope.
# In the microscope field of view, cells having two or more nuclei in the TRAP-positive cells were determined to be osteoclasts, and the number of cells was measured. […]
# [2] = system: ALP activity of MC3T3-E1 osteoblasts in co-incubation; assay: Co-culture of osteoclasts and osteoblasts: ALP activity; format: cell-based, mouse; conditions: 10 μM, vs non-treated
# Method: 1×10^5 C57BL/6 mouse bone marrow mononuclear cells per well of a 48-well plate were prepared in the same manner as described above, and co-incubated together with 1.5×10^4 MC3T3-E1 murine osteoblasts, using 500 μL of α-MEM containing 10% FBS and 1% antibiotic (100 U/mL penicillin G and […] streptomycin) in the conditions of 37° C. and 5% CO2 while the medium was exchanged every three days.
# Positive control cells were co-incubated together with osteoclast differentiation factors M-CSF (60 ng/mL) and RANKL (150 ng/mL), and osteoblast differentiation factors ascorbic acid (50 μg/mL) and 10 mM R-glycerophosphate.
# Negative control cells were incubated by adding only M-CSF as a differentiation factor. In order to examine effects of osmundacetone on the differentiation of osteoclasts and osteoblasts, osmundacetone were administered at a final concentration of 10 μM into the positive control cells on day 1 after the cells were dispensed on the plate.
# ALP activity was assessed using Quantichrom ALP Assay Kit (Bioassay Systems, Hayward, Calif., USA) according to manufacturer's instructions.
# […] The % activation of ALP activity was shown by comparing ALP activity of cells treated with an experimental compound and ALP activity of the non-treated control cells.
# In order to investigate whether or not osmundacetone has ability to inhibit osteoclast differentiation and activate osteoblast differentiation simultaneously, bone marrow mononuclear cells collected from C57BL/6 mice and MC3T3-E1 cells as osteoblast precursor cells were co-incubated in a 48-well plate at cell concentrations of 1×10^5 bone marrow cells and […] MC3T3-E1 cells per well. The bone marrow monocyte/macrophage lineage cells in the co-incubated bone marrow cells and osteoblast precursor cells differentiated into mature multinuclear osteoclasts in the presence of M-CSF and RANKL within 6-7 days.
# normal cell lines = assay: MTT assay cytotoxicity, normal cell lines (summary); format: cell-based
# Method: The compound isolated from Osmunda japonica, prepared in section 1 of <Example 1>, was investigated for cytotoxicity using MTT assay.
# MTT assay was as follows.
# Cells were incubated at 1×10^3 cells/well in a 96-well plate containing DMEM with 10% fetal bovine serum (FBS) at 5% CO2 and 37° C., and then osmundacetone was added to the cell medium, followed by incubation for 24 hours. Thereafter, 100 μL of MTT (0.5 mg/ml PBS) was administered, followed by incubation for 2 hours. Thereafter, the medium was removed from each well, and 100 μL of DMSO was added. After incubation for 10 minutes, the absorbance was measured using a microplate reader (SPCTRA MAX 340PC, Molecular Devices, USA) at 570 nm. The absorbance is an indicator showing the number of living cells, and calculated by the following equation. The reproducibility thereof was validated by three experiments.
# Cell proliferation (%)=OD550(sample)/OD550(control)
smiles,measurement,setting,value
"CC(=O)/C=C/c1ccc(O)c(O)c1 [Osmundacetone, (3E)-4-(3,4-dihydroxyphenyl)-3-buten-2-one]","formation of giant osteoclasts, number compared with the positive control group",[1]; 1 μM,smaller compared with the positive control group
same,formation of giant osteoclasts / differentiation of bone marrow mononuclear cells into osteoclasts,[1]; 10 μM osmundacetone (printed 10M),significantly inhibited; also recorded: almost completely inhibited
same,pIC50,"[1]; Mus musculus, Osteoclast",≥ 5.10
same,inhibition at 7 µM,"[1]; Mus musculus, Osteoclast, 7 μM, read-out: inhibition of differentiation of bone marrow mononuclear cells into osteoclasts",3 to 40%
same,inhibition at 10 µM,"[1]; Mus musculus, Osteoclast, 10 μM, read-out: inhibition of differentiation of bone marrow mononuclear cells into osteoclasts",≥ 95%
same,proliferation of osteoclast precursor cells,[1]; osmundacetone 10M as printed,significantly inhibited
same,pIC50,[1],5.10
same,% activation of ALP activity in co-incubation,[2]; day 7 of co-incubation,104%
same,% activation of ALP activity in co-incubation,[2]; day 14 of co-incubation,111%
same,% activation of ALP activity in co-incubation,[2]; day 21 of co-incubation,95%
same,cell cytotoxicity on normal cell lines,normal cell lines; judged against IC50 of less than 100 μM as active,did not show cell cytotoxicity
same,LD50 for normal cell lines,normal cell lines; summary range,"2,500-5,000 μM"

# Reference: patent publication US20200129450A1, “COMPOSITION COMPRISING OSMUNDACETONE OR PHARMACEUTICALLY ACCEPTABLE SALT THEREOF FOR PREVENTING OR TREATING BONE DISEASE” (KORPHARM CO., LTD., priority 2016, published 2020)
